Assays:
MDAPCa2b cells = test: MTT growth assay, MDAPCa2b; assay type: cell-based; settings: Homo sapiens, MDA-PCa-2b
Procedure: (§1) Growth of the cells was measured using a MTT assay. Cells were plated (2000 cells/ 96 well or 13,000 cells/ 24 well) for 48 hours then treated with bergamottin for 4 days (96 hours) and then incubated with MTT (3-(4,5-Dimethylthiazol- 2-yl)-2,5-Diphenyltetrazolium bromide) (4 mg/ml) for 2 h. at 37°C. DMSO (vehicle control for bergamottin) levels were compensated in each bergamottin treatment group. Cells were centrifuged at 2000 g for 10 min and the supernatant was discarded. The cell pellet was dissolved in 100/500 μl of DMSO depending on the well size. A plate reader was used to read the absorption at 540 nm. Experiments were performed in octuplet/quadruplet and repeated at least three times.

[1] = system: RWPE1 cells (non transformed prostate epithelium); test: MTT growth assay, RWPE1; assay type: cell-based, human
Procedure: as §1

total AR in LNCaP cells = test: Western blotting of total AR, LNCaP; assay type: cell-based, human; settings: bergamottin 10μM, CSSM
Procedure: (§2) Cells were plated at 25–30% confluence when maintained in complete media. When the cells required DHT tretment and media replacement to charcoal stripped serum media (CSSM) they were plated at 35–40% confluence. Bergamottin is dissolved in DMSO (vehicle control) and the amount of DMSO at each treatment group was kept constant. After the completion of the treatment cells were washed in phosphate buffer (PBS) containing 2mMEDTA and 2mM EGTA and lysed in RIPA buffer (50 mM TRIS, 150 mM NaCl, 1% NP40, 0.5% sodium deoxycholate, 0.1% SDS, 2mM EDTA, 2mM EGTA) supplemented with protease and phosphatase inhibitors for total protein isolation. Protein estimation was performed using micro BCA assay and equal protein amponts were loaded on SDS-PAGE gels for western analysis. GAPDH was used as an internal control for total protein. Infrared fluorescent-labeled secondary antibodies were used for detection using Odyssey CLx. The bands were quantified using Odyssey software, which calculates pixel density and automatically takes an area adjacent to each band for background corrections.

LNCaP cells [2] = test: Cell cycle analysis (propidium iodide, flow cytometry), LNCaP; assay type: cell-based, human
Procedure: Cell cycle analysis was performed after staining the cells with propidium iodide (PI). For long term bergamottin treatment (96 hrs.) cells were plated at 25–30% confluence and for short term bergamottin treatment (48 hrs.) they were plated at 30–35% confluence. After completion of specified treatment the cells were trypsinized washed with PBS and fixed in 70% ethanol and then stained with PI in nicoletti buffer (propidium iodide 50 μg/ml, 0.1% sodium citrate, 0.1% triton X-100, RNase 1 mg/ml, in DPBS). Cells were analyzed using C6 Accuri flow cytometer (Becton Dickinson, Mountainview, CA). FlowJo software was used to gate and remove the debris (gate on SSC and FSC) and aggregates (FL2 A and FL2H) from the analysis. Watson pragmatic and Dean-Jett -Fox methods was used to assign percentage frequencies to cells present in the different cell cycle stages.

[3] = system: cell cycle regulating proteins in MDAPCa2b cells; test: Western blot of cell cycle regulating proteins, MDAPCa2b; assay type: cell-based, human; settings: for CDK2, normalized fold change after GAPDH calibration / CDK4, normalized fold change after GAPDH calibration / CDK6, normalized fold change after GAPDH calibration / Cyclin A, normalized fold change after GAPDH calibration / Cyclin B1, normalized fold change after GAPDH calibration / Cyclin D1, normalized fold change after GAPDH calibration / Cyclin D3, normalized fold change after GAPDH calibration / Cyclin E, normalized fold change after GAPDH calibration / Myt 1, normalized fold change after GAPDH calibration / P-Wee1, normalized fold change after GAPDH calibration / P-cdc2, normalized fold change after GAPDH calibration / P-histone H3, normalized fold change after GAPDH calibration / p21, normalized fold change after GAPDH calibration / p27, normalized fold change after GAPDH calibration: 48 hrs., 0 μM = 100
Procedure: as §2, with “corrections. […]” for “corrections.”

LNCaP cells [4] = test: TUNEL apoptosis detection assay, LNCaP; assay type: cell-based, human; settings: 10μM, 4 days
Procedure: To detect apoptosis in the cells after bergamottin treatment In Situ cell death detection kit from Sigma-Aldrich (St. Louis, MO) was used. This apoptosis detection kit fluorescently labels the single and double-stranded DNA breaks caused due to apoptosis using terminal deoxynucleotidyl transferase (TUNEL-reaction). The cells were plated in poly- D- lysine coated 35 mm Glass bottom dish (Cellvis catalog# D35C4-20-1.5-N), treated with bergamottin for the specified time, and dosage and then stained with the kit reagents. The kit recommended protocol was followed. After the staining, the confocal microscope was used to procure images of the cells. The TUNEL assay preferentially labels apoptosis in comparison to necrosis and positive apoptosis is recognized when cells incorporate fluorescent labelled nucleotide (Ex 450 to 500nm and Em 515 to 565-green).

Compound: CC(C)=CCC/C(C)=C/COc1c2ccoc2cc2oc(=O)ccc12 [bergamottin]
- inhibition at 10 µM (MDAPCa2b cells; 10μM): 60%
- IC50 (MDAPCa2b cells; treatment 96 hours (methods) / 120 hours (Fig 1 legend), read-out: bergamottin concentration giving 50% growth reduction): 4 µM
- inhibition at 10 µM ([1]; Homo sapiens, RWPE-1, RWPE1, 10μM): 60%
- effect on growth at lower concentration ([1]; RWPE1, lower concentration): does not effect growth
- downregulation of total AR levels (total AR in LNCaP cells): 50%
- G1 frequency, Dean-Jett-Fox (LNCaP cells [2]; Berg 5μM, 96 hrs.): 90.81 ±1.7%
- G2 frequency, Dean-Jett-Fox (LNCaP cells [2]; Berg 5μM, 96 hrs.): 10.53 ±1.0%
- G2 frequency, Watson Pragmatic (LNCaP cells [2]; Berg 5μM, 96 hrs.): 8.59 ±3.0%
- S frequency, Dean-Jett-Fox (LNCaP cells [2]; Berg 5μM, 96 hrs.): -0.3 ±2.3%
- S frequency, Watson Pragmatic (LNCaP cells [2]; Berg 5μM, 96 hrs.): 0.32±4.3%
- G1 frequency, Dean-Jett-Fox (LNCaP cells [2]; Berg 10μM, 96 hrs.): 95.1 ±3.4%
- G2 frequency, Dean-Jett-Fox (LNCaP cells [2]; Berg 10μM, 96 hrs.): 0.22 ±0.4%
- G2 frequency, Watson Pragmatic (LNCaP cells [2]; Berg 10μM, 96 hrs.): 10.07 ±0.9%
- S frequency, Dean-Jett-Fox (LNCaP cells [2]; Berg 10μM, 96 hrs.): -0.03 ±1.1%
- S frequency, Watson Pragmatic (LNCaP cells [2]; Berg 10μM, 96 hrs.): -1.17 ±4.5%
- G1 frequency, Dean-Jett-Fox (LNCaP cells [2]; Berg 20μM, 48 hrs.): 86.7 ±2.3%
- G2 frequency, Dean-Jett-Fox (LNCaP cells [2]; Berg 20μM, 48 hrs.): 15.3 ±1.0%
- G2 frequency, Watson Pragmatic (LNCaP cells [2]; Berg 20μM, 48 hrs.): 13.4 ±4.3%
- S frequency, Dean-Jett-Fox (LNCaP cells [2]; Berg 20μM, 48 hrs.): -9.8 ±3.0%
- S frequency, Watson Pragmatic (LNCaP cells [2]; Berg 20μM, 48 hrs.): 4.8 ±3.5%
- G1 frequency, Dean-Jett-Fox (LNCaP cells [2]; Berg 30μM, 48 hrs.): 96.2 ±3.6%
- G2 frequency, Dean-Jett-Fox (LNCaP cells [2]; Berg 30μM, 48 hrs.): 7.7 ±0.9%
- G2 frequency, Watson Pragmatic (LNCaP cells [2]; Berg 30μM, 48 hrs.): 6.3 ±2.3%
- S frequency, Dean-Jett-Fox (LNCaP cells [2]; Berg 30μM, 48 hrs.): -8.4 ±4.5%
- S frequency, Watson Pragmatic (LNCaP cells [2]; Berg 30μM, 48 hrs.): 3.7 ±2.6%
- CDK2, normalized fold change after GAPDH calibration ([3]; Bergamottin 20 μM): 63
- CDK4, normalized fold change after GAPDH calibration ([3]; Bergamottin 20 μM): 90
- CDK6, normalized fold change after GAPDH calibration ([3]; Bergamottin 20 μM): 108
- Cyclin A, normalized fold change after GAPDH calibration ([3]; Bergamottin 20 μM): 86
- Cyclin B1, normalized fold change after GAPDH calibration ([3]; Bergamottin 20 μM): 52
- Cyclin D1, normalized fold change after GAPDH calibration ([3]; Bergamottin 20 μM): 106
- Cyclin D3, normalized fold change after GAPDH calibration ([3]; Bergamottin 20 μM): 55
- Cyclin E, normalized fold change after GAPDH calibration ([3]; Bergamottin 20 μM): 120
- Myt 1, normalized fold change after GAPDH calibration ([3]; Bergamottin 20 μM): 259
- P-Wee1, normalized fold change after GAPDH calibration ([3]; Bergamottin 20 μM): 80
- P-cdc2, normalized fold change after GAPDH calibration ([3]; Bergamottin 20 μM): 14
- P-histone H3, normalized fold change after GAPDH calibration ([3]; Bergamottin 20 μM): 130
- p21, normalized fold change after GAPDH calibration ([3]; Bergamottin 20 μM): 139
- p27, normalized fold change after GAPDH calibration ([3]; Bergamottin 20 μM): 158
- CDK2, normalized fold change after GAPDH calibration ([3]; Bergamottin 30 μM): 77
- CDK4, normalized fold change after GAPDH calibration ([3]; Bergamottin 30 μM): 81
- CDK6, normalized fold change after GAPDH calibration ([3]; Bergamottin 30 μM): 98
- Cyclin A, normalized fold change after GAPDH calibration ([3]; Bergamottin 30 μM): 58
- Cyclin B1, normalized fold change after GAPDH calibration ([3]; Bergamottin 30 μM): 42
- Cyclin D1, normalized fold change after GAPDH calibration ([3]; Bergamottin 30 μM): 110
- Cyclin D3, normalized fold change after GAPDH calibration ([3]; Bergamottin 30 μM): 49
- Cyclin E, normalized fold change after GAPDH calibration ([3]; Bergamottin 30 μM): 87
- Myt 1, normalized fold change after GAPDH calibration ([3]; Bergamottin 30 μM): 451
- P-Wee1, normalized fold change after GAPDH calibration ([3]; Bergamottin 30 μM): 87
- P-cdc2, normalized fold change after GAPDH calibration ([3]; Bergamottin 30 μM): 15
- P-histone H3, normalized fold change after GAPDH calibration ([3]; Bergamottin 30 μM): 152
- p21, normalized fold change after GAPDH calibration ([3]; Bergamottin 30 μM): 126
- p27, normalized fold change after GAPDH calibration ([3]; Bergamottin 30 μM): 143
- CDK4 level (western blot) ([3]; low dose 5 and 10 μM, 96 hrs.): did not observe any significant change
- CDK6 level (western blot) ([3]; low dose 5 and 10 μM, 96 hrs.): did not observe any significant change
- cdc-2 phosphorylation (western blot) ([3]; low dose 5 and 10 μM, 96 hrs.): Decreased cdc-2 phosphorylation
- cyclin B1 level (western blot) ([3]; low dose 5 and 10 μM, 96 hrs.): lower
- cyclin D3 level (western blot) ([3]; low dose 5 and 10 μM, 96 hrs.): lower
- DNA breaks (TUNEL, apoptosis) (LNCaP cells [4]): increased DNA breaks

Source: paper PMC8476002, “Bergamottin a CYP3A inhibitor found in grapefruit juice inhibits prostate cancer cell growth by downregulating androgen receptor signaling and promoting G0/G1 cell cycle block and apoptosis” (PLoS ONE, 2021)
